Laboratory results as given in ChEMBL document CHEMBL1201862, “PubChem BioAssay data set” (2004).
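These data come from cells grown in 96-well plates and exposed to compound for 48 hours at five concentrations. GI50 marks 50% less growth.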 Activity calls are given as the source filed them. Cut-off read from the data, not from the text of the source: active = GI50 up to about 1.1 µM and inactive = higher.

What was measured:
Assay in all cases: inhibition of tumour cell growth, NCI panel, 48 h
[1] = tested on: HL-60
[2] = tested on: RXF 393
[3] = tested on: 786-0
[4] = tested on: OVCAR-5
[5] = tested on: OVCAR-8
[6] = tested on: LOX IMVI
[7] = tested on: SK-MEL-2
[8] = tested on: UACC-257
[9] = tested on: OVCAR-3
[10] = tested on: NCI-H226
[11] = tested on: MDA-N
[12] = tested on: MCF7
[13] = tested on: HCC 2998
[14] = tested on: A549
[15] = tested on: HCT-15
[16] = tested on: NCI-H460
[17] = tested on: RPMI-8226
[18] = tested on: M14
[19] = tested on: TK-10
[20] = tested on: Malme-3M

Row | SMILES | GI50 [1] | GI50 [2] | GI50 [3] | GI50 [4] | GI50 [5] | GI50 [6] | GI50 [7] | GI50 [8] | GI50 [9] | GI50 [10] | GI50 [11] | GI50 [12] | GI50 [13] | GI50 [14] | GI50 [15] | GI50 [16] | GI50 [17] | GI50 [18] | GI50 [19] | GI50 [20]
1 | CSc1ccc(NC(=O)Nc2cc(C)ccn2)cc1 | > 100 µM (inactive) | > 100 µM (inactive) | > 100 µM (inactive) | > 100 µM (inactive) | > 100 µM (inactive) | > 100 µM (inactive) | > 100 µM (inactive) | > 100 µM (inactive) | > 100 µM (inactive) | > 100 µM (inactive) | > 100 µM (inactive) | > 100 µM (inactive) | 91.4 µM (inactive) | > 100 µM (inactive) | > 100 µM | > 100 µM (inactive) | > 100 µM (inactive) | > 100 µM (inactive) | > 100 µM (inactive) | > 100 µM (inactive)
2 | CCOC(=O)C1C(=O)CC(C)(O)C(C(=O)OCC)C1c1ccc(OC)cc1 (stereo not given) | > 100 µM (inactive) | > 100 µM (inactive) | > 100 µM (inactive) | > 100 µM (inactive) | > 100 µM (inactive) | > 100 µM (inactive) | > 100 µM (inactive) | > 100 µM (inactive) | > 100 µM (inactive) | 1.6 µM (inactive) | > 100 µM (inactive) | > 100 µM (inactive) | > 100 µM (inactive) | > 100 µM (inactive) | > 100 µM | > 100 µM (inactive) | > 100 µM (inactive) | > 100 µM (inactive) | > 100 µM (inactive) | > 100 µM (inactive)
3 | C[C@]12CC[C@@H]3c4cc(OCC(F)(F)F)c(O)cc4C(=O)C[C@H]3[C@@H]1CC[C@@H]2O | 1.84 µM (inactive) | 13 µM (inactive) | 10.8 µM (inactive) | 29.9 µM (inactive) | 23.1 µM (inactive) | 5.79 µM (inactive) | 11.4 µM (inactive) | 12.2 µM (inactive) | 2.88 µM (inactive) | 22.5 µM (inactive) | 1.6 µM (inactive) | 5.07 µM (inactive) | 6.11 µM (inactive) | 6.98 µM (inactive) | 4.18 µM | 4.71 µM (inactive) | 3.2 µM (inactive) | 5.77 µM (inactive) | 18.7 µM (inactive) | 3.63 µM (inactive)
4 | Cc1cc(NC2=CC(=O)C(=O)c3ccccc32)no1 | 6.22 µM (inactive) | 15.1 µM (inactive) | 15.1 µM (inactive) | 5.5 µM (inactive) | 6.81 µM (inactive) | 1.84 µM (inactive) | 4.75 µM (inactive) | 6.92 µM (inactive) | 3.85 µM (inactive) | 17.6 µM (inactive) | 1.85 µM (inactive) | 2.81 µM (inactive) | 20.7 µM (inactive) | 5 µM (inactive) | 3.62 µM | 6.87 µM (inactive) | 6.05 µM (inactive) | 14.8 µM (inactive) | 26.1 µM (inactive) | 2.49 µM (inactive)
5 | C(=N/c1ccccc1C1SCCCS1)/c1ccccc1 | 82.6 µM (inactive) | > 100 µM (inactive) | > 100 µM (inactive) | > 100 µM (inactive) | > 100 µM (inactive) | > 100 µM (inactive) | > 100 µM (inactive) | > 100 µM (inactive) | > 100 µM (inactive) | > 100 µM (inactive) | > 100 µM (inactive) | > 100 µM (inactive) | > 100 µM (inactive) | > 100 µM (inactive) | > 100 µM | > 100 µM (inactive) | > 100 µM (inactive) | > 100 µM (inactive) | > 100 µM (inactive) | > 100 µM (inactive)
6 | O=CN1CCN(C(=O)c2ccc(Cl)cc2)C1=S | 23.3 µM (inactive) | 16.8 µM (inactive) | 6.79 µM (inactive) | 17.4 µM (inactive) | 15.6 µM (inactive) | 11.7 µM (inactive) | 16.3 µM (inactive) | 17.5 µM (inactive) | 15.4 µM (inactive) | 43.5 µM (inactive) | 16.6 µM (inactive) | 2.79 µM (inactive) | 19.8 µM (inactive) | 14.9 µM (inactive) | 21.3 µM | 21.6 µM (inactive) | 3.35 µM (inactive) | 14.6 µM (inactive) | 15 µM (inactive) | 24.5 µM (inactive)
